# Test results reported in patent US9802927B2, “Oxadiazine compounds and methods of use thereof” (Denali Therapeutics, Inc., priority 2015, dated 2017).
# Tested on: Aβ42
# Experiment: In vitro cell screening assay in H4 cells expressing human APP751: Aβ42 by sandwich ELISA
# Type: cell-based
# Conditions: Homo sapiens, compounds 0.003-10 μM, incubated overnight (16-18 h), sandwich ELISA of supernatant
# How it was run: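 Secreted Aβ42 measured by sandwich ELISA, C-terminal-specific capture and 4G8-HRP detection, TMB read at 450 nm, from supernatants of APP751-expressing H4 cells exposed overnight (16-18 h) to 0.003-10 μM compound in Pro293 medium, 0.33% DMSO. Data scaled between DMSO and DAPT controls; EC50 from variable-slope nonlinear regression.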
row,EC50,Structure (SMILES)
1,> 3 µM,"COc1nc(C2=NOCC(c3ccccn3)N2)ccc1-n1cnc(C)c1 (single isomer, unassigned; (+)) [Example 168A, (+)-3-(6-methoxy-5-(4-methyl-1H-imidazol-1-yl)pyridin-2-yl)-5-(pyridin-2-yl)-5,6-dihydro-4H-1,2,4-oxadiazine]"
2,0.0619 µM,"COc1nc(C2=NOCC(c3cc4cccc(C)c4o3)N2C)ccc1-n1cnc(C)c1 (single isomer, unassigned; (+)) [Example 23, (+)-3-(6-Methoxy-5-(4-methyl-1H-imidazol-1-yl)pyridin-2-yl)-4-methyl-5-(7-methylbenzofuran-2-yl)-5,6-dihydro-4H-1,2,4-oxadiazine]"

# Same assay, conditions: compounds 0.003-10 μM, incubated overnight (16-18 h), sandwich ELISA of supernatant
row,Structure (SMILES),EC50
1,"COc1nc(C2=NOCC(c3cn(C)c4cc(C#N)ccc34)N2)ccc1-n1cnc(C)c1 (single isomer, unassigned; (-)) [Example 249A, (−)-3-(3-(6-methoxy-5-(4-methyl-1H-imidazol-1-yl)pyridin-2-yl)-5,6-dihydro-4H-1,2,4-oxadiazin-5-yl)-1-methyl-1H-indole-6-carbonitrile]",0.429 µM
2,"COc1nc(C2=NOCC(C)N2)ccc1-n1cnc(C)c1 (single isomer, unassigned; (-)) [Example 149B, (−)-3-(6-methoxy-5-(4-methyl-1H-imidazol-1-yl)pyridin-2-yl)-5-methyl-5,6-dihydro-4H-1,2,4-oxadiazine]",> 3 µM
3,"COc1nc(C2=NOCC(C3CC3)N2)ccc1-n1cnc(C)c1 (single isomer, unassigned) [Example 134A, 5-cyclopropyl-3-(6-methoxy-5-(4-methyl-1H-imidazol-1-yl)pyridin-2-yl)-5,6-dihydro-4H-1,2,4-oxadiazine]",> 3 µM
4,"COc1nc(C2=NOCC(c3cnc4ccc(Cl)cn34)N2)ccc1-n1cnc(C)c1 (single isomer, unassigned; (-)) [Example 269A, (−)-5-(6-chloroimidazo[1,2-a]pyridin-3-yl)-3-(6-methoxy-5-(4-methyl-1H-imidazol-1-yl)pyridin-2-yl)-5,6-dihydro-4H-1,2,4-oxadiazine]",> 3 µM
5,"COc1nc(C2=NOCC(c3cn(C)c4ncccc34)N2)ccc1-n1cnc(C)c1 (single isomer, unassigned; (+)) [Example 195B, (+)-3-(6-methoxy-5-(4-methyl-1H-imidazol-1-yl)pyridin-2-yl)-5-(1-methyl-1H-pyrrolo [2,3-b]pyridin-3-yl)-5,6-dihydro-4H-1,2,4-oxadiazine]",0.163 µM
6,"COc1nc(C2=NOCC(c3cc4c(F)cccc4o3)N2)ccc1-n1cnc(C)c1 (single isomer, unassigned; (+)) [Example 99A, (+)-5-(4-fluorobenzofuran-2-yl)-3-(6-methoxy-5-(4-methyl-1H-imidazol-1-yl)pyridin-2-yl)-5,6-dihydro-4H-1,2,4-oxadiazine]",0.856 µM
7,"COc1nc(C2=NOCC(c3ccc(S(C)(=O)=O)cc3)N2)ccc1-n1cnc(C)c1 (single isomer, unassigned; (+)) [Example 217B, (+)-3-(6-methoxy-5-(4-methyl-1H-imidazol-1-yl)pyridin-2-yl)-5-(4-(methylsulfonyl)phenyl)-5,6-dihydro-4H-1,2,4-oxadiazine]",2.05 µM
8,"COc1nc(C2=NOCC(c3nc4ccccc4s3)N2)ccc1-n1cnc(C)c1 (single isomer, unassigned; (-)) [Example 208A, (−)-5-(benzo[d]thiazol-2-yl)-3-(6-methoxy-5-(4-methyl-1H-imidazol-1-yl)pyridin-2-yl)-5,6-dihydro-4H-1,2,4-oxadiazine]",> 3 µM
9,"COc1nc(C2=NOCC(C3CCC3)N2)ccc1-n1cnc(C)c1 (single isomer, unassigned; (+)) [Example 163A, (+)-5-cyclobutyl-3-(6-methoxy-5-(4-methyl-1H-imidazol-1-yl)pyridin-2-yl)-5,6-dihydro-4H-1,2,4-oxadiazine]",> 3 µM
10,"COc1nc(C2=NOCC(c3ccc(C#N)cc3)N2)ccc1-n1cnc(C)c1 (single isomer, unassigned; (-)) [Example 151A, (−)-4-(3-(6-methoxy-5-(4-methyl-1H-imidazol-1-yl)pyridin-2-yl)-5,6-dihydro-4H-1,2,4-oxadiazin-5-yl) benzonitrile]",> 3 µM
11,"COc1nc(C2=NOCC(c3nn(C)c4ccc(Cl)cc34)N2)ccc1-n1cnc(C)c1 (single isomer, unassigned; (-)) [Example 232A, (−)-5-(5-chloro-1-methyl-1H-indazol-3-yl)-3-(6-methoxy-5-(4-methyl-1H-imidazol-1-yl)pyridin-2-yl)-5,6-dihydro-4H-1,2,4-oxadiazine]",0.278 µM
12,"COc1nc(C2=NOCC(c3cn(C)c4c(F)cccc34)N2)ccc1-n1cnc(C)c1 (single isomer, unassigned; (-)) [Example 231A, (−)-5-(7-fluoro-1-methyl-1H-indol-3-yl)-3-(6-methoxy-5-(4-methyl-1H-imidazol-1-yl)pyridin-2-yl)-5,6-dihydro-4H-1,2,4-oxadiazine]",0.229 µM
13,"COc1nc(C2=NOCC(c3cn(C)c4cc(S(C)(=O)=O)ccc34)N2)ccc1-n1cnc(C)c1 (single isomer, unassigned; (+)) [Example 256B, (+)-3-(6-methoxy-5-(4-methyl-1H-imidazol-1-yl)pyridin-2-yl)-5-(1-methyl-6-(methylsulfonyl)-1H-indol-3-yl)-5,6-dihydro-4H-1,2,4-oxadiazine]",0.422 µM
14,"COc1nc(C2=NOCC(c3cn(C4CC4)c4cc(F)ccc34)N2)ccc1-n1cnc(C)c1 (single isomer, unassigned; (-)) [Example 228A, (−)-5-(1-cyclopropyl-6-fluoro-1H-indol-3-yl)-3-(6-methoxy-5-(4-methyl-1H-imidazol-1-yl)pyridin-2-yl)-5,6-dihydro-4H-1,2,4-oxadiazine]",0.262 µM
15,"COc1nc(C2=NOCC(c3cn(C)c4ccccc34)N2C)ccc1-n1cnc(C)c1 (single isomer, unassigned; (+)) [Example 200A, (+)-3-(6-methoxy-5-(4-methyl-1H-imidazol-1-yl)pyridin-2-yl)-4-methyl-5-(1-methyl-1H-indol-3-yl)-5,6-dihydro-4H-1,2,4-oxadiazine]",0.154 µM
16,"COc1nc(C2=NOCC(CC3CC3)N2)ccc1-n1cnc(C)c1 (single isomer, unassigned) [Example 159B, 5-(cyclopropylmethyl)-3-(6-methoxy-5-(4-methyl-1H-imidazol-1-yl)pyridin-2-yl)-5,6-dihydro-4H-1,2,4-oxadiazine]",0.695 µM
17,"COc1nc(C2=NOCC(c3cc(F)c(Cl)c(F)c3)N2)ccc1-n1cnc(C)c1 (single isomer, unassigned; (-)) [Example 267A, (−)-5-(4-chloro-3,5-difluorophenyl)-3-(6-methoxy-5-(4-methyl-1H-imidazol-1-yl)pyridin-2-yl)-5,6-dihydro-4H-1,2,4-oxadiazine]",> 3 µM

# Results, then the compound that gave them:
row,EC50,Structure (SMILES)
1,0.113 µM,"COc1nc(C2=NOCC(c3ccc4nc(C)sc4c3)N2)ccc1-n1cnc(C)c1 (single isomer, unassigned; (+)) [Example 238B, (+)-3-(6-methoxy-5-(4-methyl-1H-imidazol-1-yl)pyridin-2-yl)-5-(2-methylbenzo[d]thiazol-6-yl)-5,6-dihydro-4H-1,2,4-oxadiazine]"
2,0.103 µM,"COc1nc(C2=NOCC(c3cn(C)c4ccc(F)c(F)c34)N2)ccc1-n1cnc(C)c1 (single isomer, unassigned; (-)) [Example 220A, (−)-5-(4,5-difluoro-1-methyl-1H-indol-3-yl)-3-(6-methoxy-5-(4-methyl-1H-imidazol-1-yl)pyridin-2-yl)-5,6-dihydro-4H-1,2,4-oxadiazine]"
3,0.102 µM,"COc1nc(C2=NOCC(c3ccccc3C)N2)ccc1-n1cnc(C)c1 (single isomer, unassigned; (+)) [Example 131A, (+)-3-(6-methoxy-5-(4-methyl-1H-imidazol-1-yl)pyridin-2-yl)-5-(o-tolyl)-5,6-dihydro-4H-1,2,4-oxadiazine]"
4,0.097 µM,"COc1nc(C2=NOCC(c3ccccc3)N2)ccc1-n1cnc(C)c1 (single isomer, unassigned) [Example 36B, 3-(6-methoxy-5-(4-methyl-1H-imidazol-1-yl)pyridin-2-yl)-5-phenyl-5,6-dihydro-4H-1,2,4-oxadiazine]"
5,0.0548 µM,"COc1nc(C2=NOCC(c3nn(C)c4ccccc34)N2)ccc1-n1cnc(C)c1 (single isomer, unassigned; (+)) [Example 124B, (+)-3-(6-methoxy-5-(4-methyl-1H-imidazol-1-yl)pyridin-2-yl)-5-(1-methyl-1H-indazol-3-yl)-5,6-dihydro-4H-1,2,4-oxadiazine]"
6,0.0246 µM,"COc1nc(C2=NOCC(c3cc4ccc(F)cc4o3)N2)ccc1-n1cnc(C)c1 (single isomer, unassigned; (+)) [Example 52B, (+)-5-(6-fluorobenzofuran-2-yl)-3-(6-methoxy-5-(4-methyl-1H-imidazol-1-yl)pyridin-2-yl)-5,6-dihydro-4H-1,2,4-oxadiazine]"
7,0.0185 µM,"COc1nc(C2=NOCC(c3cccc(OC(F)(F)F)c3)N2)ccc1-n1cnc(C)c1 (single isomer, unassigned; (+)) [Example 242B, (+)-3-(6-methoxy-5-(4-methyl-1H-imidazol-1-yl)pyridin-2-yl)-5-(3-(trifluoromethoxy)phenyl)-5,6-dihydro-4H-1,2,4-oxadiazine]"
8,0.0185 µM,"COc1nc(C2=NOCC(c3cn(C)c4ccc(C#N)cc34)N2)ccc1-n1cnc(C)c1 (single isomer, unassigned; (+)) [Example 245B, (+)-3-(3-(6-methoxy-5-(4-methyl-1H-imidazol-1-yl)pyridin-2-yl)-5,6-dihydro-4H-1,2,4-oxadiazin-5-yl)-1-methyl-1H-indole-5-carbonitrile]"
9,0.0101 µM,"COc1nc(C2=NOCC(c3ccc4c(c3)CCC4)N2)ccc1-n1cnc(C)c1 (single isomer, unassigned; (+)) [Example 248B, (+)-5-(2,3-dihydro-1H-inden-5-yl)-3-(6-methoxy-5-(4-methyl-1H-imidazol-1-yl)pyridin-2-yl)-5,6-dihydro-4H-1,2,4-oxadiazine]"
